Values of other authors, collected in patent US20230066204A1 (OYE Therapeutics, Inc, priority 2019, published 2023).

Test system: rat
Conditions: administered intravenously

Cn1c(=O)c2c(ncn2C)n(C)c1=O [Caffeine]
accelerating emergence from anesthesia: effective in accelerating emergence from anesthesia
